For 8 compounds, IC50 results are on record in BindingDB's records for doi:10.1021/jm970815r (Eisai, 1998).

pIC50: −log10 of the molar value.

This experiment in a line: Inhibition of Phosphodiesterase 5 from porcine platelets.
Take `COc1ccc(CNc2nnc(Cl)c3ccc(C(F)(F)F)cc23)cc1Cl` [(3-Chloro-4-methoxy-benzyl)-(4-chloro-7-trifluoromethyl-phthalazin-1-yl)-amine]: the pIC50 is 8.28.

For the compound `COc1ccc(CNc2nnc(Cl)c3ccc([N+](=O)[O-])cc23)cc1Cl` [(3-Chloro-4-methoxy-benzyl)-(4-chloro-7-nitro-phthalazin-1-yl)-amine], the pIC50 is 8.46.

Take `COc1ccc(CNc2nnc(Cl)c3ccc(C#N)cc23)cc1Cl`: the pIC50 was 8.32.

Compound `COc1ccc(CNc2nnc(Cl)c3cc(Cl)ccc23)cc1Cl` [(3-Chloro-4-methoxy-benzyl)-(4,6-dichloro-phthalazin-1-yl)-amine] gave a pIC50 of 6.09.

As to `COc1ccc(CNc2nnc(Cl)c3cc(C#N)ccc23)cc1Cl` [4-Chloro-1-(3-chloro-4-methoxy-benzylamino)-phthalazine-6-carbonitrile], the pIC50 is 6.85.

`O=[N+]([O-])c1ccc2c(Cl)nnc(NCc3ccc4c(c3)OCO4)c2c1` [Benzo[1,3]dioxol-5-ylmethyl-(4-chloro-7-nitro-phthalazin-1-yl)-amine] gave a pIC50 of 7.20.

Regarding `COc1ccc(CNc2nnc(Cl)c3ccc(C#N)cc23)cc1` [1-Chloro-4-(4-methoxy-benzylamino)-phthalazine-6-carbonitrile], the pIC50 was 6.85.

With `CCOc1ccc(CNc2nnc(Cl)c3ccc(C#N)cc23)cc1Cl` [1-Chloro-4-(3-chloro-4-ethoxy-benzylamino)-phthalazine-6-carbonitrile], the pIC50 was 7.31.

In general, pIC50 refers to the IC50 on a negative log10 scale, so that one unit is a factor of ten. A high value points to a small IC50.
